Measurements as given in US20240158446A1, “CYCLIC COMPOUND HAVING SELECTIVE INHIBITORY ACTION ON KRAS OVER HRAS AND NRAS” (CHUGAI SEIYAKU KABUSHIKI KAISHA, priority 2021, published 2024).
*1 amine or outer side, *2 acyl side, *3 side chain or, on linkers, in order; H or OH if unused. Where a SMILES comes first, the peptide text is derived from it. Bridges are numbered along the chain shown (N, C = ends). [ ]: non-standard residue; d: D form. The star is where a group is joined. hPhe(3-Cl-4-CF3) = N[C@@H](CCc1ccc(C(F)(F)F)c(Cl)c1)C(=O)O; NPrPhe(4-CF3) = CCCN[C@@H](Cc1ccc(C(F)(F)F)cc1)C(=O)O; X2 = CCCN([C@@H](COC1CCC1)C(=O)[*:2])[*:1]; NMeGly(cPent) = CN[C@H](C(=O)O)C1CCCC1; NMeD = CN[C@@H](CC(=O)O)C(=O)O; Ac4c(3-oxa) = NC1(C(=O)O)COC1; NMeL = CN[C@@H](CC(C)C)C(=O)O; Morpholide = C1CN(*)CCO1; Ac4c = NC1(C(=O)O)CCC1; Sar = CNCC(=O)O

What was measured:
[1] = system: human lung cancer strain NCI-H441; assay: cells; details: NCI-H441, 96 h, read-out: NCI-H441 IC50 (nM), NCI-H441 cell proliferation, 4 days, CellTiter-Glo;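 also: cell proliferation inhibition after four days measured by CellTiter-Glo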
[2] = biological target: GDP-bound NRAS wild-type protein (Homo sapiens, UniProt P01111); assay: Binding to NRAS by surface plasmon resonance (SPR), Single Cycle Kinetics; details: ratio of KD for GDP-bound NRAS wild-type protein to KD for KRAS, SPR
[3] = biological target: GDP-bound KRAS wild-type protein (Homo sapiens, UniProt P01116); assay: Binding to KRAS by surface plasmon resonance (SPR), Single Cycle Kinetics; details: SPR, Single Cycle Kinetics, GDP-bound KRAS wild-type protein; read-out: KRAS KD
[4] = biological target: GDP-bound HRAS wild-type protein (Homo sapiens, UniProt P01112); assay: Binding to HRAS by surface plasmon resonance (SPR), Single Cycle Kinetics; details: ratio of KD for GDP-bound HRAS wild-type protein to KD for KRAS, SPR
Sequence of GDP-bound HRAS wild-type protein (P01112 whole entry): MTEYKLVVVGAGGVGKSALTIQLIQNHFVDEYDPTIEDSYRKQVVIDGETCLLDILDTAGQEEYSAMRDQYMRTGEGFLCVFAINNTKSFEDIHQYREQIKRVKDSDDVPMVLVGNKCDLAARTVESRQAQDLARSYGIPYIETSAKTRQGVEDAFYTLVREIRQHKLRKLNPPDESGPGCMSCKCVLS

Sequence of GDP-bound KRAS wild-type protein (P01116 whole entry): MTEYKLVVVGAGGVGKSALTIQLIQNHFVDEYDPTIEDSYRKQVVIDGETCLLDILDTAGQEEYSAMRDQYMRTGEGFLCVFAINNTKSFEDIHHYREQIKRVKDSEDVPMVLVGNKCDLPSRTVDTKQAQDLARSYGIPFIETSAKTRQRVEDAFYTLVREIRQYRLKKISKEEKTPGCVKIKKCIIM
Sequence of GDP-bound NRAS wild-type protein (P01111 whole entry): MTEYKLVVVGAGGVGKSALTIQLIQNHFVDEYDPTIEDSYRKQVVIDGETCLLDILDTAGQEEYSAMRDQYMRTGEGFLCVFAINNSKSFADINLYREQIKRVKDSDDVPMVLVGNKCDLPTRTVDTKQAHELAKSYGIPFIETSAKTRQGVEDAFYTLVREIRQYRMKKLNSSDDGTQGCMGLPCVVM

Row | Compound | IC50 [1] [nM] | NRAS/KRAS (KD ratio) [2] | Kd [3] [nM] | HRAS/KRAS (KD ratio) [4]
1 | CC[C@H](C)[C@@H]1NC(=O)[C@H](CC(C)C)N(C)C(=O)C[C@@H](C(=O)N(C)CC)N(C)C(=O)[C@H](C2CCCC2)N(C)C(=O)C2(CC(C)(C)C2)NC(=O)[C@@H]2C[C@@H](F)CN2C(=O)[C@H](CCc2cc(F)c(C(F)(F)F)c(F)c2)NC(=O)CN(C)C(=O)[C@H](Cc2ccc(C(F)(F)F)cc2)N2CC/C=C\C[C@@H](C2=O)N(C)C(=O)CN(C)C1=O [PP1694] | 4.1 | A (a compound having 10 or more and less than 20 is denoted as A) | 0.051 | A (a compound having 10 or more and less than 20 is denoted as A)
2 | CCO[C@@H]1C[C@H]2C(=O)NC3(CC(C)(C)C3)C(=O)N(C)[C@@H](C3CCCC3)C(=O)N(C)[C@H](C(=O)N(C)C)CC(=O)N(C)[C@@H](CC(C)C)C(=O)N[C@@H]([C@@H](C)CC)C(=O)N(C)CC(=O)N(C)[C@H]3C/C=C\CCN(C3=O)[C@@H](Cc3ccc(C(F)(F)F)cc3)C(=O)N(C)CC(=O)N[C@@H](CCc3ccc(C(F)(F)F)c(F)c3)C(=O)N2C1 [PP1931] | 9.5 | A (a compound having 10 or more and less than 20 is denoted as A) | 0.12 | B (a compound having 3 or more and less than 10 is denoted as B)
3 | CCCN1C(=O)CN(C)C(=O)CN(C)C(=O)[C@H]([C@@H](C)CC)NC(=O)[C@H](CC(C)C)N(C)C(=O)C[C@@H](C(=O)N2CCOCC2)N(C)C(=O)[C@H](C2CCCC2)N(C)C(=O)C2(COC2)NC(=O)[C@@H]2CCCN2C(=O)[C@H](CCc2ccc(C(F)(F)F)c(Cl)c2)NC(=O)CN(C)C(=O)[C@@H]1Cc1ccc(C(F)(F)F)cc1 [PP1922] ([NMeL]I[Sar][Sar][NPrPhe(4-CF3)][Sar][hPhe(3-Cl-4-CF3)]P[Ac4c(3-oxa)][NMeGly(cPent)][NMeD]-Morpholide; lactam N-11) | 44.1 | B (a compound having 3 or more and less than 10 is denoted as B) | 0.23 | C (A compound having a KD ratio of 0.1 or more and less than 3 is denoted as C)
4 | CCO[C@@H]1C[C@H]2C(=O)NC3(CC(C)(C)C3)C(=O)N(C)[C@@H](C3CCCC3)C(=O)N(C)[C@H](CC)CC(=O)N(C)[C@@H](CC)C(=O)N[C@@H]([C@@H](C)CC)C(=O)N(C)CC(=O)N(C)[C@H]3C/C=C\CCN(C3=O)[C@@H](Cc3ccc(C(F)(F)F)cc3)C(=O)N(C)CC(=O)N[C@@H](CCc3cc(F)c(C(F)(F)F)c(F)c3)C(=O)N2C1 [PP1623] | 4.5 | A (a compound having 10 or more and less than 20 is denoted as A) | 0.19 | A (a compound having 10 or more and less than 20 is denoted as A)
5 | CCO[C@@H]1C[C@H]2C(=O)NC3(CC(C)(C)C3)C(=O)N(C)[C@@H](C3CCCC3)C(=O)N(C)[C@H](C(=O)N(C)C)CC(=O)N(C)[C@@H](C)C(=O)N[C@@H]([C@@H](C)CC)C(=O)N(C)CC(=O)N(C)[C@H]3C/C=C\CCN(C3=O)[C@@H](Cc3ccc(C(F)(F)F)cc3)C(=O)N(C)CC(=O)N[C@@H](CCc3cc(F)c(C(F)(F)F)c(F)c3)C(=O)N2C1 [PP1641] | 4.6 | A (a compound having 10 or more and less than 20 is denoted as A) | 0.098 | A (a compound having 10 or more and less than 20 is denoted as A)
6 | CC[C@H](C)[C@@H]1NC(=O)[C@H](CC)N(C)C(=O)C[C@@H](C(=O)N(C)C)N(C)C(=O)[C@H](C2CCCC2)N(C)C(=O)C2(CC(C)(C)C2)NC(=O)[C@H](CC)N(C)C(=O)[C@H](CCc2cc(F)c(C(F)(F)F)c(F)c2)NC(=O)CN(C)C(=O)[C@H](Cc2ccc(C(F)(F)F)cc2)N2CC/C=C\C[C@@H](C2=O)N(C)C(=O)CN(C)C1=O [PP1935] | 13.1 | A (a compound having 10 or more and less than 20 is denoted as A) | 0.46 | A (a compound having 10 or more and less than 20 is denoted as A)
7 | CCO[C@@H]1C[C@H]2C(=O)NC3(CC(C)(C)C3)C(=O)N(C)[C@@H](C3CCCC3)C(=O)N(C)[C@H](C(=O)N(C)CC)CC(=O)N(C)[C@@H](CC3CC3)C(=O)N[C@@H]([C@@H](C)CC)C(=O)N(C)CC(=O)N(C)[C@H]3C/C=C\CCN(C3=O)[C@@H](Cc3ccc(C(F)(F)F)cc3)C(=O)N(C)CC(=O)N[C@@H](CCc3ccc(C(F)(F)F)c(OC)c3)C(=O)N2C1 [PP1678] | 5.6 | A (a compound having 10 or more and less than 20 is denoted as A) | 0.17 | B (a compound having 3 or more and less than 10 is denoted as B)
8 | CC[C@H](C)[C@@H]1NC(=O)[C@H](CC2CC2)N(C)C(=O)C[C@@H](C(=O)N(C)C)N(C)C(=O)[C@H](C2CCCC2)N(C)C(=O)C2(CC(C)(C)C2)NC(=O)[C@@H]2CC(F)(F)CN2C(=O)[C@H](CCc2cc(F)c(C(F)(F)F)c(F)c2)NC(=O)CN(C)C(=O)[C@H](Cc2ccc(C(F)(F)F)cc2)N2CC/C=C\C[C@@H](C2=O)N(C)C(=O)CN(C)C1=O [PP1713] | 7.9 | A (a compound having 10 or more and less than 20 is denoted as A) | 0.096 | A (a compound having 10 or more and less than 20 is denoted as A)
9 | CCC[C@H]1C(=O)N[C@@H]([C@@H](C)CC)C(=O)N(C)CC(=O)N(C)[C@H]2C/C=C\CCN(C2=O)[C@@H](Cc2ccc(C(F)(F)F)cc2)C(=O)N(C)CC(=O)N[C@@H](CCc2ccc(C(F)(F)F)c(Cl)c2)C(=O)N2C[C@H](OCC)C[C@H]2C(=O)NC2(CC(C)(C)C2)C(=O)N(C)[C@@H](C2CCCC2)C(=O)N(C)[C@H](C(=O)N(C)C)CC(=O)N1C [PP1748] | 3.1 | A (a compound having 10 or more and less than 20 is denoted as A) | 0.062 | B (a compound having 3 or more and less than 10 is denoted as B)
10 | CCCN(C)C(=O)[C@@H]1CC(=O)N(C)[C@@H](CC(F)F)C(=O)N[C@@H]([C@@H](C)CC)C(=O)N(C)CC(=O)N(C)[C@H]2C/C=C\CCN(C2=O)[C@@H](Cc2ccc(C(F)(F)F)cc2)C(=O)N(C)CC(=O)N[C@@H](CCc2cc(F)c(C(F)(F)F)c(F)c2)C(=O)N2CCC[C@H]2C(=O)NC2(CC(C)(C)C2)C(=O)N(C)[C@@H](C2CCCC2)C(=O)N1C [PP1721] | 10 | A (a compound having 10 or more and less than 20 is denoted as A) | 0.3 | A (a compound having 10 or more and less than 20 is denoted as A)
11 | CCO[C@@H]1C[C@H]2C(=O)NC3(CCC3)C(=O)N(C)[C@@H](C3CCCC3)C(=O)N(C)[C@H](C3CCC3)CC(=O)N(C)[C@@H](CC3CC3)C(=O)N[C@@H]([C@@H](C)CC)C(=O)N(C)CC(=O)N(C)[C@H]3C/C=C\CCN(C3=O)[C@@H](Cc3ccc(C(F)(F)F)cc3)C(=O)N(C)CC(=O)N[C@@H](CCc3cc(F)c(C(F)(F)F)c(F)c3)C(=O)N2C1 [PP1637] | 32.5 | A (a compound having 10 or more and less than 20 is denoted as A) | 0.32 | A (a compound having 10 or more and less than 20 is denoted as A)
12 | CCCN(C)C(=O)[C@@H]1CC(=O)N(C)[C@@H](CC(F)F)C(=O)N[C@@H]([C@@H](C)CC)C(=O)N(C)CC(=O)N(C)[C@H]2C/C=C\CCN(C2=O)[C@@H](Cc2ccc(C(F)(F)F)cc2)C(=O)N(C)CC(=O)N[C@@H](CCc2cc(F)c(Cl)c(F)c2)C(=O)N2C[C@H](OCC)C[C@H]2C(=O)NC2(CC(C)(C)C2)C(=O)N(C)[C@@H](C2CCCC2)C(=O)N1C [PP1757] | 7.1 | AA (a compound having 20 or more is denoted as AA) | 0.31 | A (a compound having 10 or more and less than 20 is denoted as A)
13 | CCCN1C(=O)CN(C)C(=O)CN(C)C(=O)[C@H]([C@@H](C)CC)NC(=O)[C@H](CC(C)C)N(C)C(=O)C[C@@H](C(=O)N2CCOCC2)N(C)C(=O)[C@H](C2CCCC2)N(C)C(=O)C2(CCC2)NC(=O)[C@@H]2CCCN2C(=O)[C@H](CCc2ccc(C(F)(F)F)c(Cl)c2)NC(=O)CN(C)C(=O)[C@@H]1COC1CCC1 [PP1816] ([NMeL]I[Sar][Sar][X2][Sar][hPhe(3-Cl-4-CF3)]P[Ac4c][NMeGly(cPent)][NMeD]-Morpholide; lactam N-11) | 63.8 | B (a compound having 3 or more and less than 10 is denoted as B) | 1.2 | C (A compound having a KD ratio of 0.1 or more and less than 3 is denoted as C)
14 | CC[C@H](C)[C@@H]1NC(=O)[C@H](CC)N(C)C(=O)C[C@@H](C(=O)N(C)C)N(C)C(=O)[C@H](C2CCCC2)N(C)C(=O)C2(CCCC2)N(C)C(=O)[C@@H]2C[C@@H](C)CN2C(=O)[C@H](CCc2cc(F)c(C(F)(F)F)c(F)c2)NC(=O)CN(C)C(=O)[C@H](Cc2ccc(C)cc2)N2CC/C=C\C[C@@H](C2=O)N(C)C(=O)[C@@H]2CCCN2C1=O [PP1814] | 26.2 | A (a compound having 10 or more and less than 20 is denoted as A) | 0.27 | A (a compound having 10 or more and less than 20 is denoted as A)
